Experimental data published in ChEMBL document CHEMBL1201862, “PubChem BioAssay data set” (2004).
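These data come from cells grown in 96-well plates and exposed to compound for 48 hours at five concentrations. Abbreviation: GI50, concentration required for 50% inhibition of growth.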 Active and inactive are the calls of the source. Rule as the data show it: active = GI50 up to about 1.1 µM and inactive = higher.

Experiments:
Test in all cases: growth of human tumour cells (NCI), 48 h
OVCAR-5 = tested on: OVCAR-5
OVCAR-3 = tested on: OVCAR-3
HCT-15 = tested on: HCT-15
TK-10 = tested on: TK-10
A498 = tested on: A498
EKVX = tested on: EKVX
NCI-H23 = tested on: NCI-H23
ACHN = tested on: ACHN
SNB-75 = tested on: SNB-75
NCI-H522 = tested on: NCI-H522
IGROV-1 = tested on: IGROV-1
SF-295 = tested on: SF-295
CCRF-CEM = tested on: CCRF-CEM
A549 = tested on: A549
SW-620 = tested on: SW-620
NCI-H460 = tested on: NCI-H460
SF-539 = tested on: SF-539

| Compound | GI50 (OVCAR-5) | GI50 (OVCAR-3) | GI50 (HCT-15) | GI50 (TK-10) | GI50 (A498) | GI50 (EKVX) | GI50 (NCI-H23) | GI50 (ACHN) | GI50 (SNB-75) | GI50 (NCI-H522) | GI50 (IGROV-1) | GI50 (SF-295) | GI50 (CCRF-CEM) | GI50 (A549) | GI50 (SW-620) | GI50 (NCI-H460) | GI50 (SF-539) |
| --- | --- | --- | --- | --- | --- | --- | --- | --- | --- | --- | --- | --- | --- | --- | --- | --- | --- |
| O=CC1CCCc2ccccc21 (stereo not given) | > 100 µM (inactive) | > 100 µM (inactive) | > 51.5 µM | > 100 µM (inactive) | > 100 µM (inactive) | > 100 µM (inactive) | > 100 µM (inactive) | > 100 µM (inactive) | > 100 µM (inactive) | > 79.6 µM (inactive) | > 100 µM (inactive) | > 100 µM (inactive) | > 49.7 µM (inactive) | > 100 µM (inactive) | > 40.4 µM (inactive) | > 61.8 µM (inactive) |  |
| COc1ccc(/C=C/C(=N\NC(=O)c2ccccc2)c2sc(Nc3ccc([N+](=O)[O-])cc3)nc2C)cc1OC | 27.7 µM (inactive) | 23.3 µM (inactive) | 7.89 µM | 29.3 µM (inactive) |  | 18.6 µM (inactive) | > 10 µM (inactive) | 14.7 µM (inactive) | 5.57 µM (inactive) | 4.24 µM (inactive) | > 10 µM (inactive) | 11.2 µM (inactive) | 2.34 µM (inactive) | 10.6 µM (inactive) | 16 µM (inactive) | 16.5 µM (inactive) | 21.1 µM (inactive) |
| COc1cc(OC)c(C#N)c(OC)c1C | 98.4 µM (inactive) |  |  | > 100 µM (inactive) | > 100 µM (inactive) | > 100 µM (inactive) | > 100 µM (inactive) | > 100 µM (inactive) |  |  |  | > 100 µM (inactive) | > 100 µM (inactive) | > 100 µM (inactive) | > 100 µM (inactive) | > 100 µM (inactive) | > 100 µM (inactive) |
| O=Cc1cn(C(=O)c2ccccc2)c2ccccc12 | > 100 µM (inactive) | > 100 µM (inactive) | > 100 µM | > 100 µM (inactive) | > 100 µM (inactive) | > 100 µM (inactive) | 80.4 µM (inactive) | > 100 µM (inactive) | 43.6 µM (inactive) |  | > 100 µM (inactive) | 38.1 µM (inactive) | 43.2 µM (inactive) | > 100 µM (inactive) | > 100 µM (inactive) | > 100 µM (inactive) | 80 µM (inactive) |
| Cn1c(=O)n(CC2CS2)c2ccccc21 (stereo not given) | > 100 µM (inactive) | > 100 µM (inactive) | > 100 µM | > 100 µM (inactive) |  | > 100 µM (inactive) |  | > 100 µM (inactive) | > 100 µM (inactive) | > 100 µM (inactive) | > 100 µM (inactive) | > 100 µM (inactive) | 70 µM (inactive) | > 100 µM (inactive) | > 100 µM (inactive) | > 100 µM (inactive) | > 100 µM (inactive) |
| O=C(c1ccccc1)[C@H]1Nc2ccc(Cl)cc2[C@H]2OCCC[C@@H]12 | 15.9 µM (inactive) | 14.9 µM (inactive) | 23.1 µM | 28.5 µM (inactive) |  | 23.4 µM (inactive) | 24.7 µM (inactive) | 31.3 µM (inactive) |  | 14.1 µM (inactive) | 39 µM (inactive) | 17 µM (inactive) |  |  | 17.3 µM (inactive) | 18 µM (inactive) |  |
| CCOC(OC1=C(C#N)CCCC1)C(CC)[Se]c1ccccc1[N+](=O)[O-] (stereo not given) | 31.4 µM (inactive) | 26.5 µM (inactive) | 18.5 µM | 76.2 µM (inactive) | > 100 µM (inactive) | 30.8 µM (inactive) | 16.7 µM (inactive) | 29.1 µM (inactive) | 21.9 µM (inactive) | 16.3 µM (inactive) | 23.9 µM (inactive) | 22.2 µM (inactive) | 20.6 µM (inactive) | 57.5 µM (inactive) |  | 34.2 µM (inactive) | 20 µM (inactive) |
| Cc1cc(O)nc(NNC(C#N)c2cccc(O)c2)n1 (stereo not given) | > 100 µM (inactive) | > 100 µM (inactive) | > 100 µM | > 100 µM (inactive) |  |  | > 100 µM (inactive) | > 100 µM (inactive) | > 100 µM (inactive) | > 100 µM (inactive) | > 100 µM (inactive) | > 100 µM (inactive) | > 100 µM (inactive) | > 100 µM (inactive) | > 100 µM (inactive) | > 100 µM (inactive) | > 100 µM (inactive) |
| CCOC(=O)CC(=O)ON(C)C(=O)Cc1ccccc1 | > 100 µM (inactive) | > 100 µM (inactive) | > 100 µM | > 10 µM (inactive) | > 100 µM (inactive) | > 100 µM (inactive) | > 100 µM (inactive) | > 100 µM (inactive) |  | > 100 µM (inactive) | > 100 µM (inactive) | > 100 µM (inactive) | > 100 µM (inactive) | > 100 µM (inactive) | > 100 µM (inactive) | > 100 µM (inactive) | > 100 µM (inactive) |
| O=C(Nc1ccccc1)C(=O)C(C(=O)c1ccccc1F)C1OC(=O)c2ccccc21 (stereo not given) | 81.5 µM (inactive) |  | 22.9 µM | 69.2 µM (inactive) | 89.3 µM (inactive) | 35 µM (inactive) | 47.3 µM (inactive) | 49.9 µM (inactive) | 21.1 µM (inactive) | 21.5 µM (inactive) | 71.4 µM (inactive) | 47.1 µM (inactive) | 29.5 µM (inactive) | 37.8 µM (inactive) | 41.9 µM (inactive) | 37.7 µM (inactive) | 19.3 µM (inactive) |
| Cc1ccc2c(c1CCCC(C)(C)O)C(=O)C(O)=C(C(C)C)C2=O |  | 66.7 µM (inactive) | 41.9 µM | > 100 µM (inactive) | > 100 µM (inactive) | 47.2 µM (inactive) | 59.3 µM (inactive) | 63 µM (inactive) | > 100 µM (inactive) | > 100 µM (inactive) | 90.4 µM (inactive) | 81.7 µM (inactive) | 32.2 µM (inactive) | 50.6 µM (inactive) | > 100 µM (inactive) | 47.2 µM (inactive) | > 100 µM (inactive) |
| O=C(c1ccc(O)cc1O)C1C(c2ccc(O)cc2)OC(c2ccc(O)cc2)C1C(=O)c1ccc(O)cc1O (stereo not given) | 12.6 µM (inactive) | 18.7 µM (inactive) |  | 14.7 µM (inactive) |  | 21.2 µM (inactive) | 30 µM (inactive) | 22.2 µM (inactive) | 16.6 µM (inactive) | 16.5 µM (inactive) |  | 25.5 µM (inactive) |  | > 100 µM (inactive) | 30.6 µM (inactive) | 42.8 µM (inactive) | 20 µM (inactive) |
| Clc1ccc2c(Cl)nc(-c3ccccc3)nc2c1 | 51.8 µM (inactive) | 17.2 µM (inactive) |  | 46.1 µM (inactive) | 37.4 µM (inactive) | 11.4 µM (inactive) | 10.7 µM (inactive) | 20.9 µM (inactive) | 17.7 µM (inactive) |  | 24.5 µM (inactive) | 25.2 µM (inactive) | 22.9 µM (inactive) |  | 33.9 µM (inactive) | 24.3 µM (inactive) |  |
| Cc1ccc(C(=O)CC2=Nc3nnc(CCCCCCCc4nnc5n4C(=O)C(CC(=O)c4ccc(C)cc4)=N5)n3C2=O)cc1 | > 100 µM (inactive) | > 100 µM (inactive) | > 100 µM | > 100 µM (inactive) |  | > 100 µM (inactive) | > 100 µM (inactive) | > 100 µM (inactive) | 24.2 µM (inactive) | > 100 µM (inactive) | > 100 µM (inactive) | > 100 µM (inactive) | > 100 µM (inactive) | > 100 µM (inactive) | > 100 µM (inactive) | > 100 µM (inactive) | > 100 µM (inactive) |
| Cc1cc(N(CCC#N)CCC#N)ccc1/N=N/c1cccc(C(=O)O)c1 | > 100 µM (inactive) | 56 µM (inactive) | > 100 µM | > 100 µM (inactive) | > 100 µM (inactive) | > 100 µM (inactive) | > 100 µM (inactive) | > 100 µM (inactive) | 34.1 µM (inactive) | 38.8 µM (inactive) | > 100 µM (inactive) | > 100 µM (inactive) | > 100 µM (inactive) | > 100 µM (inactive) | > 100 µM (inactive) |  | > 100 µM (inactive) |
| COC(=O)C(Cc1nc2ccccc2nc1O)C(=O)C(=O)Nc1ccc(F)cc1 (stereo not given) |  | 40.6 µM (inactive) | > 100 µM | > 100 µM (inactive) |  | > 100 µM (inactive) | 34 µM (inactive) | > 100 µM (inactive) | 28.8 µM (inactive) | 10.3 µM (inactive) | 53.5 µM (inactive) | > 100 µM (inactive) | 27.3 µM (inactive) | > 100 µM (inactive) | 21.9 µM (inactive) | > 100 µM (inactive) | 37 µM (inactive) |
| C[P+](C)(C)c1ccccc1 | > 100 µM (inactive) | > 100 µM (inactive) | > 100 µM | > 100 µM (inactive) |  | > 100 µM (inactive) | > 100 µM (inactive) | > 100 µM (inactive) | > 100 µM (inactive) |  | > 100 µM (inactive) | > 100 µM (inactive) | > 100 µM (inactive) | > 100 µM (inactive) | > 100 µM (inactive) | > 100 µM (inactive) | > 100 µM (inactive) |
| COc1ccc(/C(Cl)=C(\CN(C)C)c2ccc(OC)c(OC)c2)cc1OC.[B] | > 100 µM (inactive) |  | > 100 µM | 13.7 µM (inactive) | 33.9 µM (inactive) | > 100 µM (inactive) | 95.1 µM (inactive) | > 100 µM (inactive) | 2.5 µM (inactive) |  | > 100 µM (inactive) | 12.7 µM (inactive) | > 100 µM (inactive) | > 100 µM (inactive) | > 100 µM (inactive) | > 100 µM (inactive) | 4.72 µM (inactive) |
| C=C1C(=O)O[C@@H]2C[C@]3(C)[C@@H](C[C@H]12)[C@](C)(O)CC[C@@H]3O | > 100 µM (inactive) | 37.9 µM (inactive) | 52.4 µM | 26.9 µM (inactive) |  | > 100 µM (inactive) | 30.1 µM (inactive) | > 100 µM (inactive) | 53.3 µM (inactive) | 34.8 µM (inactive) | > 100 µM (inactive) | > 100 µM (inactive) | 33.5 µM (inactive) | > 100 µM (inactive) | 45.9 µM (inactive) | 23.7 µM (inactive) | 34 µM (inactive) |
